Results from patent US20240041877A1, “DOSAGE REGIME AND METHOD FOR TREATING PULMONARY ARTERIAL HYPERTENSION” (Altavant Sciences GmbH, priority 2019, published 2024).

Test: Part 2 (MAD): plasma pharmacokinetics after BID oral KAR5585 for 14 days (incl. accumulation ratios and dose proportionality)
[1] = 200 mg/dose Fed Cohort 3, Day 1 PM, Geo. Mean
[2] = 200 mg/dose Fed Cohort 3, Day 1 PM, Mean
[3] = 200 mg/dose Fed Cohort 3, Day 7 AM, Geo. Mean
[4] = 200 mg/dose Fed Cohort 3, Day 7 AM, Mean
[5] = 200 mg/dose Fed Cohort 3, Day 7 PM, Geo. Mean
[6] = 200 mg/dose Fed Cohort 3, Day 7 PM, Mean
[7] = 200 mg/dose Fed Cohort 3, Day 14, Geo. Mean
[8] = 200 mg/dose Fed Cohort 3, Day 14, Mean
[9] = 400 mg/dose Fasted Cohort 4, Day 1 AM, Geo. Mean
[10] = 400 mg/dose Fasted Cohort 4, Day 1 AM, Mean
[11] = 400 mg/dose Fasted Cohort 4, Day 1 PM, Geo. Mean
[12] = 400 mg/dose Fasted Cohort 4, Day 1 PM, Mean
[13] = 400 mg/dose Fasted Cohort 4, Day 7 AM, Geo. Mean
[14] = 400 mg/dose Fasted Cohort 4, Day 7 AM, Mean
[15] = 400 mg/dose Fasted Cohort 4, Day 7 PM, Geo. Mean
[16] = 400 mg/dose Fasted Cohort 4, Day 7 PM, Mean
[17] = 400 mg/dose Fasted Cohort 4, Day 14, Geo. Mean
[18] = 400 mg/dose Fasted Cohort 4, Day 14, Mean
[19] = power model, PK Day 1 (AM), 100 to 400 mg KAR5585 repeat oral doses, fed
[20] = power model, PK Day 7 (AM), 100 to 400 mg KAR5585 repeat oral doses, fed
[21] = power model, PK Day 14 (AM), 100 to 400 mg KAR5585 repeat oral doses, fed

Description: Food effect was to be evaluated in Part 1, Period 2.
Pharmacokinetic data were to be summarized descriptively.

CCOC(=O)[C@@H]1CC2(CCN(c3cc(O[C@H](c4ccc(Cl)cc4-c4ccccc4)C(F)(F)F)nc(N)n3)CC2)CN1 [KAR5585, (S)-ethyl 8-(2-amino-6-((R)-1-(5-chloro-[1,1′-biphenyl]-2-yl)-2,2,2-trifluoroethoxy)pyrimidin-4-yl)-2,8-diazaspiro[4.5]decane-3-carboxylate]
C12 [1]: 9.57 ng/mL | CL/F [1]: 493 L/h | Cmax [1]: 85.4 ng/mL | Cmax/D [1]: 0.427 (ng/mL)/mg | t1/2 [1]: 4.24 h | AUC0-12 [2]: 344 ng·h/mL | AUC0-24 [2]: 601 ng·h/mL | AUC0-24/D [2]: 1.5 (hr*ng/mL)/mg | AUC0-∞ [2]: 417 ng·h/mL | C12 [2]: 9.92 ng/mL | CL/F [2]: 507 L/h | Cmax [2]: 90.9 ng/mL | Cmax/D [2]: 0.455 (ng/mL)/mg | t1/2 [2]: 4.34 h | AUC0-12 [3]: 217 ng·h/mL | AUC0-∞ [3]: 256 ng·h/mL | C12 [3]: 7.36 ng/mL | CL/F [3]: 924 L/h | Cmax [3]: 45.6 ng/mL | Cmax/D [3]: 0.228 (ng/mL)/mg | t1/2 [3]: 4.21 h | AUC0-12 [4]: 230 ng·h/mL | C12 [4]: 7.71 ng/mL | CL/F [4]: 978 L/h | Cmax [4]: 48.8 ng/mL | Cmax/D [4]: 0.244 (ng/mL)/mg | t1/2 [4]: 4.30 h | Tmax (200 mg/dose Fed Cohort 3, Day 7 AM, Median): 3.0 h | AUC0-12 [5]: 201 ng·h/mL | AUC0-24 [5]: 414 ng·h/mL | AUC0-24/D [5]: 1.03 (hr*ng/mL)/mg | AUC0-∞ [5]: 289 ng·h/mL | C12 [5]: 11.3 ng/mL | CL/F [5]: 869 L/h | Cmax [5]: 39.1 ng/mL | Cmax/D [5]: 0.195 (ng/mL)/mg | t1/2 [5]: 5.58 h | AUC0-12 [6]: 207 ng·h/mL | AUC0-24 [6]: 431 ng·h/mL | AUC0-24/D [6]: 1.08 (hr*ng/mL)/mg | AUC0-∞ [6]: 290 ng·h/mL | C12 [6]: 12.2 ng/mL | CL/F [6]: 890 L/h | Cmax/D [6]: 0.213 (ng/mL)/mg | t1/2 [6]: 6.20 h | AUC0-24 [7]: 199 ng·h/mL | AUC0-24/D [7]: 0.993 (hr*ng/mL)/mg | C24 [7]: BLQ | CL/F [7]: 1130 L/h | Cmax/D [7]: 0.217 (ng/mL)/mg | AUC0-12 [8]: 188 ng·h/mL | AUC0-24 [8]: 212 ng·h/mL | AUC0-24/D [8]: 1.06 (hr*ng/mL)/mg | AUC0-∞ [8]: 216 ng·h/mL | C24 [8]: BLQ | CL/F [8]: 1200 L/h | Cmax [8]: 48.8 ng/mL | Cmax/D [8]: 0.244 (ng/mL)/mg | Mean CL/F, Day 1 (400 mg KAR5585 BID, fed): 1730 L/h | Mean steady-state CL/F, Day 14 (400 mg KAR5585 BID, fed): 1140 L/h | AUC0-12 [9]: 253 ng·h/mL | AUC0-∞ [9]: 272 ng·h/mL | C12 [9]: 7.44 ng/mL | CL/F [9]: 1470 L/h | Cmax [9]: 74.0 ng/mL | Cmax/D [9]: 0.185 (ng/mL)/mg | t1/2 [9]: 3.00 h | AUC0-12 [10]: 281 ng·h/mL | C12 [10]: 7.49 ng/mL | CL/F [10]: 1730 L/h | Cmax [10]: 81.8 ng/mL | Cmax/D [10]: 0.205 (ng/mL)/mg | AUC0-12 [11]: 501 ng·h/mL | AUC0-24/D [11]: 0.950 (hr*ng/mL)/mg | AUC0-∞ [11]: 633 ng·h/mL | C12 [11]: 16.6 ng/mL | CL/F [11]: 632 L/h | Cmax/D [11]: 0.276 (ng/mL)/mg | t1/2 [11]: 4.18 h | AUC0-12 [12]: 528 ng·h/mL | AUC0-24/D [12]: 1.01 (hr*ng/mL)/mg | AUC0-∞ [12]: 657 ng·h/mL | C12 [12]: 17.1 ng/mL | CL/F [12]: 662 L/h | Cmax [12]: 124 ng/mL | Cmax/D [12]: 0.310 (ng/mL)/mg | t1/2 [12]: 4.33 h | AUC0-12 [13]: 473 ng·h/mL | AUC0-∞ [13]: 577 ng·h/mL | C12 [13]: 15.1 ng/mL | CL/F [13]: 846 L/h | Cmax [13]: 93.3 ng/mL | Cmax/D [13]: 0.228 (ng/mL)/mg | t1/2 [13]: 4.65 h | AUC0-12 [14]: 483 ng·h/mL | AUC0-∞ [14]: 588 ng·h/mL | C12 [14]: 15.5 ng/mL | CL/F [14]: 865 L/h | Cmax [14]: 95.9 ng/mL | Cmax/D [14]: 0.240 (ng/mL)/mg | t1/2 [14]: 4.90 h | AUC0-12 [15]: 394 ng·h/mL | AUC0-24/D [15]: 1.09 (hr*ng/mL)/mg | AUC0-∞ [15]: 534 ng·h/mL | C12 [15]: 20.1 ng/mL | CL/F [15]: 954 L/h | Cmax [15]: 63.4 ng/mL | Cmax/D [15]: 0.158 (ng/mL)/mg | t1/2 [15]: 4.92 h | AUC0-12 [16]: 404 ng·h/mL | AUC0-24 [16]: 887 ng·h/mL | AUC0-24/D [16]: 1.11 (hr*ng/mL)/mg | AUC0-∞ [16]: 538 ng·h/mL | C12 [16]: 20.8 ng/mL | CL/F [16]: 969 L/h | Cmax/D [16]: 0.172 (ng/mL)/mg | t1/2 [16]: 4.93 h | AUC0-12 [17]: 359 ng·h/mL | AUC0-24 [17]: 433 ng·h/mL | AUC0-24/D [17]: 1.08 (hr*ng/mL)/mg | AUC0-∞ [17]: 465 ng·h/mL | C12 [17]: 11.0 ng/mL | CL/F [17]: 1110 L/h | Cmax [17]: 85.3 ng/mL | Cmax/D [17]: 0.213 (ng/mL)/mg | t1/2 [17]: 6.08 h | AUC0-12 [18]: 366 ng·h/mL | AUC0-24 [18]: 444 ng·h/mL | AUC0-24/D [18]: 1.11 (hr*ng/mL)/mg | CL/F [18]: 1140 L/h | Cmax/D [18]: 0.222 (ng/mL)/mg | Tmax (400 mg/dose Fasted Cohort 4, Day 14, Median): 1.5 h | steady-state plasma levels achieved by (BID oral KAR5585 for 14 days): ≤ 7 days | Dose proportionality analysis, AUC0-12: Intercept estimate [19]: 0.969 | Dose proportionality analysis, AUC0-inf: Intercept estimate [19]: 0.817 | Dose proportionality analysis, Cmax: Intercept estimate [19]: 0.198 | Dose proportionality analysis, AUC0-12: Intercept estimate [20]: 1.51 | Dose proportionality analysis, Cmax: Intercept estimate [20]: 0.688 | Dose proportionality analysis, AUC0-12: Intercept estimate [21]: 2.37 | Dose proportionality analysis, Cmax: Intercept estimate [21]: 0.705
